Experimental findings from ChEMBL document CHEMBL1799993, “Design driven HtL: The discovery and synthesis of new high efficacy β₂-agonists” (Bioorg Med Chem Lett, 2011) are described below.

Molecules are shown by their SMILES. Activity calls are given as the source filed them. The rule behind the calls is not given here. Some results are limits rather than exact numbers.

The target in test [1] is Beta-2 adrenergic receptor (Homo sapiens, UniProt P07550). Briefly: Agonist activity at human adrenergic beta2 receptor expressed in H292 cells assessed as intracellular cAMP accumulation after 1 hr. Format: functional, cell-based.
Test [2] is filed under the species Cavia porcellus. Briefly: Bronchodilatory activity against histamine-induced bronchospasm in guinea pig. It counts as functional, organism-based.
For test [3], the system named is Cavia porcellus. As to the kind of experiment: Bronchodilatory activity against histamine-induced bronchoconstriction in guinea pig at ED80 intratracheally administered 2 hrs before challenge measured up to 12 hrs. Format: functional. Conditions: inhaled or nasal.
The subject of test [4] is Cavia porcellus. Briefly: Bronchodilatory activity against histamine-induced bronchoconstriction in guinea pig at ED80 intratracheally administered 2 hrs before challenge measured up to 2 hrs. Format: functional, organism-based.
Test [5] concerns Cavia porcellus. Briefly: Bronchodilatory activity against histamine-induced bronchoconstriction in guinea pig at ED80 intratracheally administered 2 hrs before challenge measured after 2 hrs. Format: functional, organism-based.

Chain of Beta-2 adrenergic receptor (P07550 whole entry): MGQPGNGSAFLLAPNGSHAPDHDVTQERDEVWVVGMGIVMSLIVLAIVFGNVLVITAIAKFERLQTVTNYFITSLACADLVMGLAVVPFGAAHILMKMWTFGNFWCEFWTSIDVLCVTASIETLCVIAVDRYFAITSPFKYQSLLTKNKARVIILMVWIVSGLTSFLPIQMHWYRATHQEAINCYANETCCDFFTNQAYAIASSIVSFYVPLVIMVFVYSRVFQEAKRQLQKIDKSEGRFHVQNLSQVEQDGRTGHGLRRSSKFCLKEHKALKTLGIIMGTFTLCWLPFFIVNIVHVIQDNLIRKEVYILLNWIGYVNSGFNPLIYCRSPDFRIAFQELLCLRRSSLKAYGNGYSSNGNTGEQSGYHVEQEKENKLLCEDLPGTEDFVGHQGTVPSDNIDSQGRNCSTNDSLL

Consider `CC(C)(CNCCc1ccc(O)c2[nH]c(=O)sc12)NC(=O)CCOCCc1ccccc1`, for which the EC50 in test [1] is 7.94 nM.

Consider `CN(CCc1ccc(O)c2[nH]c(=O)sc12)CCN(C)C(=O)CCOCCc1ccccc1`, for which the EC50 in test [1] is above 1000 nM.

As to `O=C(CCOCCc1ccccc1)NCCNCCc1ccc(O)c2nc(O)sc12`, in test [1], the EC50 is 1.58 nM. Turning to `CCN(CCNCCc1ccc(O)c2[nH]c(=O)sc12)C(=O)CCOCCc1ccccc1`, in test [1], the EC50 is 1 nM.

For the compound `CCCCN(CCNCCc1ccc(O)c2[nH]c(=O)sc12)C(=O)CCOCCc1ccccc1`, the EC50 in test [1] was 1.58 nM. Further, the Activity result in test [2] was “Dose-dependent effect”. The same compound had an ED80 in test [3] of 2.6 µg/kg. In addition, the result in test [4] was Active. Also, the outcome in test [5] was inactive.

In the case of `CN(CCNCCc1ccc(O)c2[nH]c(=O)sc12)C(=O)CCOCCc1ccccc1`, the EC50 in test [1] was 0.501 nM.

`CCCCN(CCN(C)CCc1ccc(O)c2[nH]c(=O)sc12)C(=O)CCOCCc1ccccc1`: the EC50 in test [1] is 126 nM. In the case of `CCCCN(CCNC[C@H](O)c1ccc(O)c2[nH]c(=O)sc12)C(=O)CCOCCc1ccccc1`, the half-maximal effective concentration (EC50) in test [1] is 0.794 nM. In the case of `COc1ccc(CC(C)NCC(O)c2ccc(O)c(NC=O)c2)cc1` (configuration not stated) [FORMOTEROL], the ED80 in test [3] worked out at 1.4 µg/kg.

Consider `CC(C)N(CCNCCc1ccc(O)c2[nH]c(=O)sc12)C(=O)CCOCCc1ccccc1`, for which the EC50 in test [1] is 7.94 nM. On to `CCCN(CCNCCc1ccc(O)c2[nH]c(=O)sc12)C(=O)CCOCCc1ccccc1`, for which the EC50 in test [1] is 7.94 nM.

In test [3], `OCc1cc(C(O)CNCCCCCCOCCCCc2ccccc2)ccc1O` (configuration not stated) [SALMETEROL] came in with an ED80 of 0.7 µg/kg. For `COc1ccc(CCNCCN(C)C(=O)CCOCCc2ccccc2)c2sc(=O)[nH]c12`, the EC50 in test [1] was above 1000 nM.
